Data from article PMC6832960, “The Fragment-Based Development of a Benzofuran Hit as a New Class of Escherichia coli DsbA Inhibitors” (Molecules, 2019).

Experiments:
[1] = target: T1, EcDsbA (Escherichia coli, UniProt P0AEG4); experiment: waterLOGSY ligand-detected NMR binding; conditions: compound 500 µM, unlabelled EcDsbA 10 µM, 298 K
T1 construct: made in house; protein recovered from the periplasm of the expressing cells
Text: (§1) To validate the binding of benzofuran analogues, three ligand-detected NMR methods, saturation-transfer difference (STD), Carr–Purcell–Meiboom–Gill (CPMG), and water–ligand observed via gradient spectroscopy (waterLOGSY), were employed to detect protein-ligand binding between the benzofurans and EcDsbA (Figure 2C). These experiments were designed as a primary screening tool to select analogues to undergo further affinity evaluation and prioritise compounds for crystal soaking. […] In a good agreement with this finding, eight out of nine benzofurans that passed all three ligand-detected experiments have their co-crystal structures successfully solved; in contrast, five compounds that failed two ligand-detected experiments only have one co-structure solved (Table 2).
(§2) For ligand-detected NMR spectroscopy, two samples (compound alone and compound + protein) were prepared for each compound. Unlabelled EcDsbA was prepared at 10 µM in a buffer of 50 mM sodium phosphate, pH 6.8, 25 mM NaCl, 100 µM 4,4-dimethyl 4-silapentane-1-sulfonic acid (DSS), and 10% ^2H2O. Compound was added to the protein sample to achieve final concentration of 500 µM (2% ^2H6-DMSO). ^1H 1D spectrum was acquired for each compound at 500 µM as a reference spectrum. All ligand-detected NMR experiments (STD, CPMG, and waterLOGSY) were acquired at 298 K on a Bruker Avance III 600 MHz NMR spectrometer equipped with a 5 mm TXI CryoProbe (Bruker, Billerica, MA, USA). STD spectra were acquired with 3 s of saturation at 1 ppm (on-resonance) and 33.3 ppm (off-resonance). WaterLOGSY spectra were acquired for compound alone and compound + protein with a 0.52 s acquisition time, 3 s relaxation delay, and 3 s Nuclear Overhauser effect (NOE) mixing time. CPMG spectra for compound alone and compound + protein were acquired with a constant spin echo delay of 1 ms and spin-lock period of 350 ms. The data was analysed using Topspin3.5 (Bruker) and DSS was used to reference the spectra.

[2] = target: T1, EcDsbA; experiment: CPMG ligand-detected NMR binding; conditions: compound 500 µM, unlabelled EcDsbA 10 µM, 298 K, spin-lock 350 ms
Text: as §1, §2

[3] = target: T1, EcDsbA; experiment: STD ligand-detected NMR binding; conditions: compound 500 µM, unlabelled EcDsbA 10 µM, 298 K
Text: as §1, §2

[4] = target: T1, EcDsbA; experiment: Compound soaking into EcDsbA crystals and X-ray diffraction; assay type: binding; conditions: crystals soaked with compound at 10 mM (5% DMSO) for 3–6 h
Text: The synthesised analogues were soaked into crystals of EcDsbA and X-ray diffraction data was collected for each analogue in order to determine their site of binding. […] The carboxy moiety of 15 was oriented towards the left-hand side of the binding groove, where more polar residues are located. The phenyl ring of the aniline moiety occupied the hydrophobic end of the binding pocket with the nitrogen atom of the amine linker positioned in close proximity to Gln35. […] Although anisidine 16 was occupying a larger region of the EcDsbA binding groove, the shift appeared to have interrupted the π-stacking interactions the benzofuran was making with the His32 side chain previously (Figure 1B and Figure S1).
EcDsbA was crystallised as previously described. Briefly, 1 µL of 30 mg/mL EcDsbA was mixed with an equal volume of crystallisation buffer (11–13% PEG8000, 5–7.5% glycerol, 1 mM CuCl2, 100 mM, sodium cacodylate pH 6.1) and equilibrated against 500 µL of reservoir buffer at 20 °C using hanging drop vapour diffusion. For compound soaking, crystals were transferred into 2 µL drops of 24% PEG8000, 22% glycerol, and 100 mM sodium cacodylate (pH 6.1) containing a compound of interest at the final concentration of 10 mM (5% DMSO) and were incubated for 3–6 h. Crystals were mounted on loops and flash-cooled in liquid nitrogen.
Datasets were collected at the Australian synchrotron on MX1 and MX2 beamlines using the Blue-Ice software (Irvine, CA, USA). MX1 beamline was equipped with an ADSC Quantum 210r detector and MX2 with an ADSC Quantum 315r detector. All datasets were indexed and integrated with iMOSFLM [32] or XDS [33]—and scaled using AIMLESS [34, 35] or SCALA [36]. Phasing was performed by molecular replacement with Phaser using the previously solved structure of EcDsbA as a search model (PDB code 1FVK). The final structure was obtained after several rounds of manual model building using Coot and refinement in phenix.refine. Structures, factors and coordinates have been deposited in the Protein Data Bank (PDB; http://www.pdb.org) under the accession codes of 6PMF, 6POQ, 6POH, 6PML, 6PVY, 6POI, and 6PVZ.

[5] = target: T2, 15N-labelled EcDsbA (Escherichia coli, UniProt P0AEG4); experiment: 2D 1H-15N HSQC chemical shift perturbation / titration; assay type: binding; conditions: for Ligand Efficiency: LE = −RTln(KD)/HAC, 298 K; for fold decrease in binding affinity: relative to 25
T2 construct: made in house; protein recovered from the periplasm of the expressing cells
Method: Compounds that passed at least one ligand-detected NMR experiment were further validated by 2D ^1H-^15N heteronuclear single quantum coherence (HSQC) spectroscopy. In HSQC experiments, chemical shift perturbations (CSP) of backbone amide resonances of ^15N-labelled EcDsbA were measured upon addition of compound at 1 mM. […] In accordance with the crystal structure, the majority of the residues perturbed by 1 mM of benzofuran analogues in single-point HSQCs are located around the hydrophobic groove which is an important binding site for DsbA substrates (Figure 2A). […] Eight compounds produced large enough CSP (>0.04 ppm) to enable HSQC titration and KD determination.
For the 2D ^1H-^15N-HSQC titration experiment, 100 µM of ^15N-labelled EcDsbA in a buffer of 50 mM HEPES, pH 6.8, 50 mM NaCl, 2% ^2H6-DMSO, and 10% ^2H2O, was titrated with increasing concentrations of compounds ([…], 0.125, 0.25, 0.5, and 1 mM). Data were acquired on a Bruker 600 MHz spectrometer equipped with a 5 mm TXI CryoProbe and a Bruker 700 MHz spectrometer equipped with a 5 mm TXI CryoProbe. Data was processed by Topspin3.5 (Bruker) and analysed by Sparky (T. D. Goddard and D. G. Kneller, SPARKY 3, University of California, San Francisco (UCSF)). Weighted chemical shift perturbations (CSP) that were observed upon addition of compounds to EcDsbA were calculated using an Equation (1) in [41]: (1) CSP=ΔδH^2+(0.2×ΔδN)^2 where ΔδH and ΔδN denote the change in chemical shift of amide proton and nitrogen resonances upon addition of the compound. Equilibrium dissociation constants (KD) were determined by fitting the plot of CSP against compound concentrations using one site with ligand depletion model (Equation (2)): (2) CSP=CSPmax×[(KD+Pt+Lt)−((KD+Pt+Lt)^2−4×Pt×Lt)]/2×Pt where CSP is the measured CSP at a given concentration, CSPmax is the CSP observed at the saturating concentration of compound, and Pt and Lt are the total protein and compound concentrations. The ligand efficiency (LE) is calculated using the Equation (3) in [42]: (3) LE=−ΔG/HAC=−RTln(KD)/HAC where R is gas constant (1.9858775 cal K^−1 mol^−1), T is temperature (298 K), KD is equilibrium dissociation constant, and HAC is the number of heavy (non-hydrogen) atoms.

T2 sequence (P0AEG4 20-208): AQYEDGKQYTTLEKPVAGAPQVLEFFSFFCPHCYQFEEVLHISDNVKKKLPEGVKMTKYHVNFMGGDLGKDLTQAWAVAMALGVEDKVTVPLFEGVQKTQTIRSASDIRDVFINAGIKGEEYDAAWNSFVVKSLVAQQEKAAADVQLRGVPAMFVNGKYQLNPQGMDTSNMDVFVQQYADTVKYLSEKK
T1 sequence (P0AEG4 20-208): as above

| SMILES | wLOGSY [1] | CPMG [2] | STD [3] | Crystal Structure in EcDsbA [4] | melting point [°C] | Kd [5] [µM] | Ligand Efficiency [5] [kcal mol^−1 HAC^−1] | fold decrease in binding affinity [5] | affinity to EcDsbA ([5]; fragment hit from biophysical screening) | chemical shift perturbations (CSP) of hydrophobic groove residues ([5]; single-point HSQC, compound at 1 mM) |
| --- | --- | --- | --- | --- | --- | --- | --- | --- | --- | --- |
| O=C(NC(C(=O)O)c1coc2cc(Br)ccc12)c1ccccc1 (centres unmarked) [compound 47, 2-Benzamido-2-(6-bromobenzofuran-3-yl)-2-acetic acid] | Pass | Fail | Fail | No | 209 to 212 | – | – | – | – | – |
| O=C(O)Cc1coc2cc(Oc3ccccc3)ccc12 [compound 25, 2-(6-Phenoxybenzofuran-3-yl)acetic acid] | Pass | Pass | Pass | Yes | – | 326 ± 25 | 0.24 | – | – | – |
| CCCCOc1ccc2c(CC(=O)O)coc2c1 [compound 21, 2-(6-Butoxybenzofuran-3-yl)acetic acid] | Pass | Pass | Pass | Yes | 108 to 109 | 1970 ± 640 | 0.20 | six-fold decrease | – | – |
| CS(=O)(=O)NC(C(=O)O)c1coc2cc(Br)ccc12 (centres unmarked) [compound 50, 2-(6-Bromobenzofuran-3-yl)-2-(methylsulfonamido)acetic acid] | Pass | Pass | Pass | Yes | 140 to 142 | – | – | – | – | – |
| O=C(O)Cc1coc2cc(OCc3ccccc3)ccc12 [compound 23] | Pass | Pass | Pass | Yes | 153 to 155 | 820 ± 140 | 0.20 | – | – | – |
| O=C(O)Cc1coc2ccc(OCc3ccccc3)cc12 [compound 24, 2-(5-(Benzyloxy)benzofuran-3-yl)acetic acid] | – | – | – | did not show clear enough electron density | 147 to 149 | – | – | – | – | – |
| COc1ccc(CC(=O)NC(C(=O)O)c2coc3cc(Br)ccc23)cc1 (centres unmarked) [compound 48, 2-(6-Bromobenzofuran-3-yl)-2-(2-(4-methoxyphenyl)acetamido)acetic acid] | Pass | Fail | Fail | No | 159 to 161 | 1350 ± 420 | 0.15 | – | – | – |
| CC(=O)NC(C(=O)O)c1coc2cc(Br)ccc12 (centres unmarked) [compound 46, 2-Acetamido-2-(6-bromobenzofuran-3-yl)acetic acid] | Pass | Fail | Fail | No | 194 to 196 | – | – | – | – | – |
| O=C(O)Cc1coc2cc(Br)ccc12 [compound 6, 2-(6-Bromobenzofufran-3-yl)acetic acid] | – | – | – | – | – | – | – | – | high mM affinity | – |
| Brc1ccc2c(Cc3nnn[nH]3)coc2c1 [compound 31, 5-((6-Bromobenzofuran-3-yl)methyl)-1H-tetrazole] | Pass | Pass | Pass | did not produce electron density and No | – | – | – | – | – | – |
| O=C(Cc1ccccc1F)NC(C(=O)O)c1coc2cc(Br)ccc12 (centres unmarked) [compound 49, 2-(6-Bromobenzofuran-3-yl)-2-(2-(2-fluorophenyl)acetamido)acetic acid] | Pass | Fail | Fail | No | 209 to 211 | > 1000 | – | – | – | – |
| CC(C)COc1ccc2c(CC(=O)O)coc2c1 [compound 22, 2-(6-Isobutoxybenzofuran-3-yl)acetic acid] | Fail | Pass | Fail | Yes | – | – | – | – | – | too small to determine KD |
| COc1ccc(Nc2ccc3c(CC(=O)O)coc3c2)cc1 [compound 16, 2-(6-((4-Methoxyphenyl)amino)benzofuran-3-yl)acetic acid] | Pass | Pass | Fail | Yes | 120 to 122 | 2700 ± 920 | 0.16 | – | – | – |
| O=C(O)C(NS(=O)(=O)c1ccccc1)c1coc2cc(Br)ccc12 (centres unmarked) | – | – | – | – | 179 to 182 | – | – | – | – | – |
| O=C(O)Cc1c[nH]c2cc(-c3ccccc3)ccc12 [compound 36, 2-(6-Phenyl-1H-indol-3-yl)acetic acid] | Pass | Pass | Pass | lack of electron density and No | – | – | – | – | – | – |
| COc1cccc(Oc2ccc3c(CC(=O)O)coc3c2)c1 [compound 26, 2-(6-(3-Methoxyphenoxy)benzofuran-3-yl)acetic acid] | Pass | Pass | Pass | – | – | 639 ± 87 | 0.20 | 2 fold | – | – |
| O=C(O)Cc1c[nH]c2cc(Br)ccc12 [compound 34, 2-(6-Bromo-1H-indol-3-yl)acetic acid] | – | – | – | lack of electron density | – | – | – | – | – | – |
